ChEMBL document CHEMBL4396894, “The photodynamic activities of dimethyl 131-[2-(guanidinyl)ethylamino] chlorin e6 photosensitizers in A549 tumor” (Eur J Med Chem, 2019)
Active and inactive are the calls of the source. No cut-off for these calls is given here.

What was measured:
[1] = system: A549; assay: Dark toxicity in human A549 cells assessed as reduction in cell viability at 0.1 to 0.9 uM after 24 hrs by MTT assay; type: cell-based; details: a549, 24 h
[2] = system: A549; assay: Dark toxicity in human A549 cells xenografted in BALB/c nude mouse assessed as reduction in tumor growth at 0.15 mg/kg, iv measured up to 14 days; type: organism-based; details: in vivo, 336 h
[3] = system: A549; assay: Photodynamic antitumor activity against human A549 cells xenografted in BALB/c nude mouse assessed as tumor growth inhibition at 0.4 mg/kg, iv irradiated with laser light at 120 J/cm2 measured up to 14 days; type: functional; details: A549, light or radiation study, 336 h, read-out: TGI
[4] = Absorption property of the compound in DMSO assessed as maximum absorption wavelength at 1 to 20 uM by UV-Vis spectra analysis; type: physicochemical
[5] = Emission property of a compound in DMSO assessed as red shift at 5 uM by 3D fluorescence spectra analysis; type: physicochemical
[6] = Photobleaching property of the compound in DMSO at 10 uM irradiated with 650 nm laser light measured up to 90 mins by absorption spectra analysis
[7] = Induction of singlet oxygen generation in DMF solution assessed as singlet oxygen quantum yield irradiated with 650 nanometer laser light for 5 to 30 secs measured immediately by DPBF-based assay; type: functional
[8] = Drug uptake in human A549 cells measured after 1 to 24 hrs by fluorescence spectrophotometry; type: ADME, cell-based
[9] = system: A549; assay: Photodynamic cytotoxicity against human A549 cells assessed as reduction in cell viability preincubated for 24 hrs followed by compound washout and subsequent 650 nanometer laser light irradiation at 0.5 J/cm2 measured by MTT assay; type: functional, cell-based; details: A549, light or radiation study
[10] = system: A549; assay: Photodynamic cytotoxicity against human A549 cells assessed as reduction in cell viability preincubated for 24 hrs followed by compound washout and subsequent 650 nanometer laser light irradiation at 0.5 to 2 J/cm2 measured by MTT assay; type: functional, cell-based
[11] = system: A549; assay: Photodynamic cytotoxicity against human A549 cells assessed as reduction in cell viability preincubated for 24 hrs followed by compound washout and subsequent 650 nanometer laser light irradiation at 1 J/cm2 measured by MTT assay; type: functional, cell-based; details: A549, light or radiation study
[12] = system: A549; assay: Photodynamic cytotoxicity against human A549 cells assessed as reduction in cell viability preincubated for 24 hrs followed by compound washout and subsequent 650 nanometer laser light irradiation at 2 J/cm2 measured by MTT assay; type: functional, cell-based; details: A549, light or radiation study
[13] = system: A549; assay: Induction of intracellular ROS generation in human A549 cells at 1 uM preincubated for 4 hrs followed by compound washout measured under 650 nanometer laser light irradiation at 2 J/cm2 by DCFDA dye-based fluorescence microscopic analysis; type: functional, cell-based
[14] = Drug localization in mitochondria of human A549 cells at 1 uM after 4 hrs by mito-tracker green based laser confocal microscopic analysis; type: ADME; details: a549, 4 h
[15] = Drug localization in lysosome of human A549 cells at 1 uM after 4 hrs by lyso-tracker blue based laser confocal microscopic analysis; type: ADME, subcellular; details: a549, 4 h
[16] = Drug localization in endoplasmic reticulum of human A549 cells at 1 uM after 4 hrs by DiOC6(3) ER-tracker green based laser confocal microscopic analysis; type: ADME, subcellular; details: a549, 4 h
[17] = system: A549; assay: Photodynamic antitumor activity against human A549 cells xenografted in BALB/c nude mouse assessed as decrease in tumor growth at 0.15 mg/kg, iv irradiated with laser light at 120 J/cm2 measured up to 14 days; type: functional, organism-based
[18] = system: A549; assay: Photodynamic antitumor activity against human A549 cells xenografted in BALB/c nude mouse assessed as decrease in tumor weight at 0.15 mg/kg, iv irradiated with laser light at 120 J/cm2 measured 13 days post light irradiation; type: functional, organism-based
[19] = system: A549; assay: Photodynamic antitumor activity against human A549 cells xenografted in BALB/c nude mouse assessed as increase in tumor tissue damage at 0.15 mg/kg, iv irradiated with laser light at 120 J/cm2 measured 24 hrs post light irradiation by H and E staining based histological analysis; type: functional, organism-based
[20] = system: A549; assay: Photodynamic antitumor activity against human A549 cells xenografted in BALB/c nude mouse assessed as increase in tumor tissue damage at 0.15 mg/kg, iv irradiated with laser light at 120 J/cm2 measured 24 hrs post light irradiation by TUNEL staining based histological analysis; type: functional, organism-based
[21] = system: A549; assay: Dark toxicity in human A549 cells xenografted in BALB/c nude mouse assessed as increase in limb tumor tissue damage at 0.15 mg/kg, iv measured 24 hrs post treatment by H and E staining based histological assay; type: organism-based; details: in vivo
[22] = system: A549; assay: Dark toxicity in human A549 cells xenografted in BALB/c nude mouse assessed as increase in limb tumor tissue damage at 0.15 mg/kg, iv measured 24 hrs post treatment by TUNEL staining based histological assay; type: organism-based; details: in vivo
[23] = system: A549; assay: Photodynamic antitumor activity against human A549 cells xenografted in BALB/c nude mouse assessed as increase in apoptosis at 0.15 mg/kg, iv irradiated with laser light at 120 J/cm2 measured 24 hrs post light irradiation by H and E staining based histological analysis; type: functional, organism-based
[24] = system: A549; assay: Photodynamic antitumor activity against human A549 cells xenografted in BALB/c nude mouse assessed as increase in necrosis at 0.15 mg/kg, iv irradiated with laser light at 120 J/cm2 measured 24 hrs post light irradiation by H and E staining based histological analysis; type: functional, organism-based
[25] = system: A549; assay: Photodynamic antitumor activity against human A549 cells xenografted in BALB/c nude mouse assessed as increase in apoptosis at 0.15 mg/kg, iv irradiated with laser light at 120 J/cm2 measured 24 hrs post light irradiation by TUNEL staining based histological analysis; type: functional, organism-based
[26] = system: A549; assay: Photodynamic antitumor activity against human A549 cells xenografted in BALB/c nude mouse assessed as increase in necrosis at 0.15 mg/kg, iv irradiated with laser light at 120 J/cm2 measured 24 hrs post light irradiation by TUNEL staining based histological analysis; type: functional, organism-based
[27] = system: A549; assay: Photodynamic cytotoxicity against human A549 cells assessed as reduction in cell viability at 0.1 to 0.9 uM preincubated for 24 hrs followed by compound washout and subsequent 650 nanometer laser light irradiation at 0.5 to 2 J/cm2 measured by MTT assay; type: functional, cell-based

Row | SMILES | Activity [1] | Activity [2] | inhibition in vivo at 0.4 mg/kg [3] | Activity [4] | Activity [5] | Activity [6] | Activity [7] | Drug uptake [8] | IC50 [9] | Activity [10] | IC50 [11] | IC50 [12] | Activity [13] | Drug uptake [14] | Drug uptake [15] | Drug uptake [16] | Activity [17] | Activity [18] | Activity [19] | Activity [20] | other results
1 | C=Cc1c(C)c2cc3nc(c(CC(=O)OC)c4[nH]c(cc5nc(cc1[nH]2)C(C)=C5CC)c(C)c4C(=O)NCCN/C(=N\C(=O)OC(C)(C)C)NC(=O)OC(C)(C)C)[C@@H](CCC(=O)OC)[C@@H]3C | Non-Toxic | Non-Toxic | 100% | 403 to 664 nm | 4 nm | inactive | 1.98 | Active | 542 nM | Dose-dependent effect | 397 nM | 197 nM | Active | Active | Active | Active | Active | Active | Active | Active | Activity [21]: Non-Toxic; Activity [22]: Non-Toxic; Activity [23]: Active; Activity [24]: Active; Activity [25]: Active; Activity [26]: Active
2 | Oc1cccc(-c2c3nc(c(-c4cccc(O)c4)c4ccc([nH]4)c(-c4cccc(O)c4)c4nc(c(-c5cccc(O)c5)c5ccc2[nH]5)CC4)C=C3)c1 [TEMOPORFIN] | Non-Toxic | Non-Toxic |  |  |  |  | 0.47 to 0.48 |  | 1100 nM |  | 779 nM | 702 nM |  |  |  |  | Active | Active |  |  | Activity [27]: Active
3 | C=Cc1c(C)c2cc3nc(c(CC(=O)OC)c4[nH]c(cc5nc(cc1[nH]2)C(C)=C5CC)c(C)c4C(=O)NCCNC(=N)N)[C@@H](CCC(=O)OC)[C@@H]3C | Non-Toxic | Non-Toxic | 100% | 403 to 664 nm | 4 nm | inactive | 2.03 | Active | 1260 nM | Dose-dependent effect | 886 nM | 545 nM | Active | Active | Active | Active | Active | Active | Active | Active | Activity [21]: Non-Toxic; Activity [22]: Non-Toxic; Activity [23]: Active; Activity [24]: Active; Activity [25]: Active; Activity [26]: Active
